Test results published in patent US20180296542A1, “IMINOSUGARS FOR IMPROVING BONE MINERAL DENSITY IN BONE DISEASE” (Saint Louis University, priority 2015, published 2018).

Experiments:
[1] = tested on: TNSALP-null (Akp2^−/−) mice, in vivo model of bone disease (WT, Het, KO); experiment: MicroCT of femur cortical bone (Example 2); conditions: for Normalized bone area-cortical bone volume fraction: FIG. 17
Procedure: (§1) TNSALP-null (Akp2^−/−) mice served as an in vivo model of bone disease to analyze the effects of the iminosugar, Miglustat.
(§2) Mice were obtained, bred and genotyped as described above. Five mice of each genotype (Wild-type (WT), heterozygous (Het), and homozygous (KO)) were included in each treatment group (i.p. administration of PBS, 400 mg/kg Miglustat, and 1200 mg/kg Miglustat as described above). A total of 44 mice were analyzed (1 Akp2^−/− homozygous mouse was omitted in the PBS group). Mice were scanned using microCT and analyzed as described above. Cortical bone in the middle 20% of bone length from trochanter to distal condyles in the femur was scanned and cortical thickness and bone mineral density were obtained. Cortical thickness (Ct.Th, μm) was used as an indication of average thickness of cortical bone. Trabecular bone of the final 625 μm before the femoral growth plate was scanned.
As depicted in FIG. 14, Miglustat improved cortical thickness in heterozygous mice at 400 mg/kg. […] Cortical bone area (Ct.Ar, mm^2) was determined by dividing cortical volume by the number of slices X slice thickness. As depicted in FIG. 16, cortical bone area increased in Wild-type (WT) and Heterozygotes (Het) administered 400 mg/kg Miglustat. […] In Homozygotes administered 1,200 mg/kg normalized bone area-cortical bone volume fraction decreased.
The attenuation depended on physical density and electron density of bone. As depicted in FIG. 18, high doses of Miglustat improved tissue mineral density in Heterozygotes.

[2] = tested on: TNSALP-null (Akp2^−/−) mice, in vivo model of bone disease (WT, Het, KO); experiment: MicroCT of femur trabecular bone (Example 2)
Procedure: as §1, §2
Bone volume fraction is the ratio of the segmented bone volume to the total volume of the region of interest.
Trabecular thickness was measured as illustrated in FIG. 23. […] Trabecular separation is the mean distance between trabeculae assessed using direct 3D methods as illustrated in FIG. 25.
As depicted in FIG. 26, the trabecular number changed with Miglustat in both heterozygotes and homozygotes treated with Miglustat. As depicted in FIG. 27, structure model index (SMI) increased in homozygous AKP mice treated with Miglustat. […] SMI represents an indicator of the structure of the trabeculae. SMI will be zero for parallel plates and 3 for cylindrical rods.
Connectivity density is a measure of the degree of connectivity of trabeculae normalized by total volume.

[3] = tested on: TNSALP-null (Akp2^−/−) mice (WT, KO); experiment: MicroCT of trabecular bone in the lumbar vertebrae (Example 2); format: in vivo
Procedure: as §1, §2
In addition to microCT analysis of femurs, microCT analysis was performed on trabecular bone in the lumbar vertebrae. […] Bone volume fraction of vertebrae is the ratio of the segmented bone volume to the total volume of the region of interest.
As depicted in FIG. 30, trabecular thickness (Tb.Th, mm) increased at 400 mg/kg of Miglustat. The profile of trabecular thickness in spine without treatment is different than femoral trabecular thickness. Trabecular thickness is the mean thickness or trabeculae assessed using direct 3D methods described above.
The profile of trabecular separation in spine is different than in femoral. Trabecular separation is the mean distance between trabeculae assessed using direct 3D methods described above.
The profile and baseline number of trabeculae in spine was different than in femoral. Trabecular number is the measure of the average number of trabeculae per unit length.
As depicted in FIG. 33, structure model index decreased in homozygote mice treated with Miglustat. […] As discussed previously, SMI is an indicator of the structure of the trabeculae. SMI will be zero for parallel plates and 3 for cylindrical rods.
As depicted in FIG. 34, the connectivity density increased after treatment of homozygotes with high doses of Miglustat. As described above, connectivity density is a measure of the degree of connectivity of trabeculae normalized by total volume.
As depicted in FIG. 35, the degree of anisotropy increased with Miglustat meaning that treatment affected the orientation of trabeculae in the bone. Degree of anisotropy defines the direction and magnitude of the preferred orientation of trabeculae and uses the ratio between the maximum and minimum radii of the mean intercept length ellipsoid.

[4] = tested on: TNSALP-null (Akp2^−/−) mice (WT, Het, KO); experiment: Growth (percent change in weight) and toxicity in treated mice (Example 2); format: in vivo
Procedure: At the age of one month, mice were administered 100 μL injections of phosphate-buffered saline (PBS) with 0 mg/kg, 400 mg/kg, or 1200 mg/kg of Miglustat (250 mg/mL) to the peritoneal cavity for gradual diffusion of the drug. Mice were massed each day to adjust Miglustat dosages to body weight. Intraperitoneal injections (IP) continued daily for one month before mice were euthanized with CO2 at the age of two months. Mice were on a Pyridoxine Supplement Diet (“Vitamin B6 Diet”) to prevent seizures. NAPA NECTAR™ (Systems Engineering™) was provided every alternating day to prevent dehydration. Urine samples were collected once a week and blood samples were collected from cheek tissue at the beginning and end of treatment.
as §2, with “Cortical thickness (Ct.Th, μm) was used as an indication of average thickness of cortical bone. Trabecular bone of the final 625 μm before the femoral growth plate was scanned.” left out

CCCCN1C[C@H](O)[C@@H](O)[C@H](O)[C@H]1CO [Miglustat, (2R,3R,4R,5S)-1-butyl-2-(hydroxymethyl)piperidine-3,4,5-triol]
Total cross sectional area inside the periosteal envelope (Tt.Ar) ([1]; Heterozygotes, 400 mg/kg, FIG. 15): slight increase
Tissue mineral density ([1]; Heterozygotes, high doses, FIG. 18): improved
Normalized bone area-cortical bone volume fraction ([1]; Homozygotes, 1,200 mg/kg): decreased
Cortical bone area (Ct.Ar) ([1]; Wild-type (WT) and Heterozygotes (Het), 400 mg/kg, FIG. 16): increased
Normalized bone area-cortical bone volume fraction ([1]; Wild-type and Heterozygotes): did not have an effect
Cortical thickness (Ct.Th) ([1]; heterozygous mice, 400 mg/kg, FIG. 14): improved
Trabecular separation (Tb.Sp), femur ([2]; FIG. 24): decrease
Appearance of trabeculae (microCT images) ([2]; Homozygotes (KO), 400 and 1200 mg/kg, FIGS. 20A-20D): restore the appearance of narrow trabeculae
Overall bone volume (bone volume fraction), femur ([2]; after treatment, FIG. 21): not significantly increased
Trabecular number (Tb.N), femur ([2]; heterozygotes and homozygotes, FIG. 26): changed
Connectivity density (Conn. D), femur ([2]; heterozygotes or homozygotes, FIG. 28): did not change
Trabecular thickness (Tb.Th), femur ([2]; homozygotes, FIG. 22): lower
Structure model index (SMI), femur ([2]; homozygous AKP mice, FIG. 27): increased
Trabecular thickness (Tb.Th), lumbar vertebrae ([3]; 400 mg/kg, FIG. 30): increased
Trabecular separation (Tb.Sp), lumbar vertebrae ([3]; FIG. 31): increased proportional to dose
Trabecular number (Tb.N), lumbar vertebrae ([3]; FIG. 32): did not change significantly
Degree of anisotropy (DA), lumbar vertebrae ([3]; FIG. 35): increased
Structure model index (SMI), lumbar vertebrae ([3]; homozygote mice, FIG. 33): decreased
Connectivity density (Conn. D), lumbar vertebrae ([3]; homozygotes, high doses, FIG. 34): increased
Overall bone volume (bone volume fraction), lumbar vertebrae ([3]; homozygotes, FIG. 29): not significantly increased
Toxicity ([4]; 400 mg/kg/day and 1,200 mg/kg/day delivered intraperitoneally): no toxicity was observed
Growth as measured by percent change in weight ([4]; high doses of Miglustat, particularly notable in WT and Het mice, FIG. 12): impeded growth
